Data reported in patent publication US5614527A, “Insecticidal tetrahydrofuran-compound” (Mitsui Toatsu Chemicals, Inc., priority 1994, dated 1997).
Where two headings read alike, the source gives them in different places.

What was measured:
[1] = system: Myzus persicae Sulzer--Green peach aphid; experiment: Effect on green peach aphid (mortality, sprayed eggplant seedlings); assay type: in vivo; details: for mortality at 10 ppm / mortality at 100 ppm: Myzus persicae, 48 h; for Mortality (%): 48 hours
Procedure: (§1) 20 parts of a compound of the present invention, 10 parts of Sorpol 355S (made by Toho Chemical Co., Ltd., a surface active agent), 70 parts of xylene were uniformly stirred and mixed to obtain an emulsion. Here, the parts mean parts by weight, which will apply to the following.
Effect on Myzus persicae Sulzer--Green peach aphid
The emulsion of each compound of the present invention prepared according to Formulation Example 1 was diluted with distilled water to a predetermined concentration, and a spreading agent (New Gramn, made by Sankyo Co., Ltd.) was then added thereto so that its concentration might be 0.02%. Then, the thus prepared chemical solution was sprayed over eggplant seedlings of 2nd and 3rd plastochrons, on which green peach aphids had been parasitic, and the seedlings were the cultivated in a hothouse. After 48 hours, the number of the alive green peach aphid was counted to calculate mortality.

[2] = system: Laodelphax striatellus Fallen--Smaller brown planthopper; experiment: Effect on smaller brown planthopper (mortality, treated rice seedlings); assay type: in vivo; details: female adults, 25° C., 48 hours
Procedure: (§2) Effect on Laodelphax striatellus Fallen--Smaller brown planthopper Each compound of the present invention was dissolved in acetone to prepare an acetone solution having a predetermined concentration, and 3 ml of the acetone solution was applied over a bundle of several rice seedlings (about third leaf stage). After drying in air, the treated seedlings were covered with a metal gauze cylinder, and ten female adults of smaller brown planthopper were introduced into the cylinder. Afterward, this cylinder was placed in a temperature controlled room at 25° C. and after 48 hours, mortality was checked.

[3] = system: resistant strain of Nepphotettix cincticeptus Unler--Resistant green rice leafhopper; experiment: Effect on resistant green rice leafhopper (mortality, treated rice seedlings); assay type: in vivo; details: for mortality at 200 ppm / mortality at 1000 ppm: Nephotettix cincticeps
Procedure: Effect on resistant strain of Nepphotettix cincticeptus Unler--Resistant green rice leafhopper
as §2, with “Each” for “Effect on Laodelphax striatellus Fallen--Smaller brown planthopper Each”, “resistant green rice leafhopper” for “smaller brown planthopper”, “C.,” for “C.”

[4] = system: Spodoptera litura Fabricius--Common cutworm; experiment: Effect on common cutworm (mortality, leaf immersion); assay type: in vivo; details: second instar larvae, 25° C.; for mortality at 1000 ppm: Spodoptera litura, 72 h; for Mortality (%): 1000 ppm, 72 hours, 4320 min
Procedure: as §1
Effect on Spodoptera litura Fabricius--Common cutworm
The emulsion of each compound of the present invention prepared according to Formulation Example 1 was diluted with distilled water to a predetermined concentration, and a spreading agent New Gramin, made by Sankyo Co., Ltd.) was then added thereto so that its concentration might be 0.02%. Then, 3leaves of Ipomea batatas were fully immersed in the solution. After drying in air, the leaves were placed in a plastic cup having a diameter of 9 cm and a depth of 4 cm, and 10 second instar larvae of common cutworm were allowed to eat the leaves at 25° C. After 72 hours, mortality was checked.

[5] = Acute toxicity to mice (oral); details: mouse, in vivo; oral (stomach tube); male mice 6 weeks old; 14 days observation
Procedure: 5-week-old male mice (Crj: CD-1) were purchased and then tamed for 1 week, and so the mice of 6 weeks old were tested. The mice were bred in a breeding chamber having a temperature of 23°±2° C., a humidity of 50±10%, a ventilation frequency of 15 times/hour and a lighting time of 12 hours/day. A solid feed (CE-2, made by Nippon Clea) was given, and as drinking water, tap water was freely given.
Each compound to be tested was Suspended in acetone:corn oil (1:9) by the use of a high-speed homogenizer, and then orally administered forcedly to the mice to be tested through a stomach tube. The amount of the solution to be administered was 0.1 ml with respect to 10 g of weight (10 ml/kg).
One administration group was constituted of 5 mice, and an observation period was 14 days from the administration.

[6] = 200 ppm, female adults, 25° C., 48 hours, read-out: Mortality (%)
[7] = 1000 ppm, female adults, 25° C., 48 hours, read-out: Mortality (%)

| SMILES | mortality at 10 ppm ([1]; 10 ppm) | mortality at 100 ppm ([1]; 100 ppm) | Mortality (%) ([2]; 200 ppm) | Mortality (%) ([2]; 1000 ppm) | mortality at 200 ppm [3, 6] | mortality at 1000 ppm [3, 7] | mortality at 1000 ppm [4] | LD50 at 336 h [5] | mortality at 200 ppm ([3]; 48 h) | mortality at 1000 ppm ([3]; 48 h) | Mortality (%) [4] | Mortality (%) ([1]; 10 ppm, 2880 min) | Mortality (%) ([1]; 100 ppm) | Mortality (%) ([3]; 200 ppm, female adults, 25° C., 48 hours) | Mortality (%) ([3]; 1000 ppm, female adults, 25° C., 48 hours) |
| --- | --- | --- | --- | --- | --- | --- | --- | --- | --- | --- | --- | --- | --- | --- | --- |
| CC(=O)N1CCCN(CC2CCOC2)C1=N[N+](=O)[O-] (centres unmarked) [Compound No. 8, 1-(methylcarbonyl)-2-(nitroimino)-3-[(tetrahydro-3-furanyl)methyl]hexahydropyrimidine] | 100% | 100% | 100% | 100% | 100% | 100% |  |  |  |  |  |  |  |  |  |
| O=[N+]([O-])N=C1NCCN1CC1CCCO1 (centres unmarked) [Comparative Compound (1), 1-[(tetrahydro-2-furanyl)methyl]-2-(nitroimino)imidazolidine, reference compound] | 0% | 0% | 0% | 20% | 0% | 30% | 0% |  |  |  |  |  |  |  |  |
| O=[N+]([O-])N=C1NCCCN1CC1CCOC1 (centres unmarked) [Compound No. 1, 1-[(tetrahydro-3-furanyl)methyl]-2-(nitroimino)hexahydropyrimidine] | 100% | 100% | 100% | 100% |  |  | 70% | > 300 mg/kg | 100% | 100% |  |  |  |  |  |
| CC(=O)N1CCCN(CC2COC(C)C2)C1=N[N+](=O)[O-] (centres unmarked) [Compound No. 10, 1-(methylcarbonyl)-3-[(2-methyl-4-tetrahydrofuryl)methyl]-2-(nitroimino) hexahydropyrimidine] | 100% | 100% | 100% | 100% | 100% | 100% | 100% |  |  |  |  |  |  |  |  |
| O=[N+]([O-])N=C1NCCN1Cc1ccoc1 [Comparative Compound (2), reference compound] |  |  | 0% | 40% |  |  | 0% |  |  |  |  |  |  |  |  |
| CCCC(=O)N1CCN(CC2CCOC2)C1=N[N+](=O)[O-] (centres unmarked) [Compound No. 12, 1-(propylcarbonyl)-2-(nitroimino)-3-[(tetrahydro-3-furanyl)methyl]imidazolidine] | 0% | 66% | 100% | 100% | 100% | 100% | 100% |  |  |  |  |  |  |  |  |
| CC(=O)N1CCN(CC2CCOC2)C1=N[N+](=O)[O-] (centres unmarked) [Compound No. 7, 1-(methylcarbonyl)-2-(nitroimino)-3-[(tetrahydro-3-furanyl)methyl]imidazolidine] | 63% | 100% | 100% | 100% | 100% | 100% | 100% |  |  |  |  |  |  |  |  |
| CCC(=O)N1CCCN(CC2CCOC2)C1=N[N+](=O)[O-] (centres unmarked) [Compound No. 11, 1-(ethylcarbonyl)-2-(nitroimino)-3-[(tetrahydro-3-furanyl)methyl]hexahydropyrimidine] |  | 100% | 100% | 100% | 100% | 100% |  |  |  |  | 70% |  |  |  |  |
| O=[N+]([O-])/N=C1\NCCCN1Cc1ccc(Cl)nc1 [Comparative Compound (4), reference compound] |  |  |  |  |  |  |  | 30 to 100 mg/kg |  |  |  |  |  |  |  |
| O=[N+]([O-])C=C1NCCCN1CC1CCOC1 (centres unmarked) [Comparative Compound (3), reference compound] |  |  |  |  |  |  | 0% |  |  |  |  |  |  |  |  |
| CC1CC(CN2CCNC2=N[N+](=O)[O-])CO1 (centres unmarked) [Compound No. 5, 1-[(2-methyl-4-tetrahydrofuryl)methyl]-2-(nitroimino)imidazolidine] | 100% | 100% | 100% | 100% | 100% | 100% |  |  |  |  |  |  |  |  |  |
| O=[N+]([O-])N=C1NCCN1CC1CCOC1 (centres unmarked) [Compound No. 4, 1-[(tetrahydro-3-furanyl)methyl]-2-(nitroimino)imidazolidine] | 67% | 100% | 100% | 100% | 100% | 100% | 100% |  |  |  |  |  |  |  |  |
| CC1(C)CC(CN2CCNC2=N[N+](=O)[O-])CO1 (centres unmarked) [Compound No. 6, 1-[(2,2-dimethyl-4-tetrahydrofuryl)methyl]-2-(nitroimino)imidazolidine] | 82% | 100% | 100% | 100% | 100% | 100% |  |  |  |  |  |  |  |  |  |
| CC1CC(CN2CCCNC2=N[N+](=O)[O-])CO1 (centres unmarked) [Compound No. 2, 1-[(2-methyl-4-tetrahydrofuryl)methyl]-2-(nitroimino)hexahydropyrimidine] | 100% | 100% | 100% | 100% |  |  |  | > 500 mg/kg | 100% | 100% |  |  |  |  |  |
| CC1(C)CC(CN2CCCNC2=N[N+](=O)[O-])CO1 (centres unmarked) [Compound No. 3, 1-[(2,2-dimethyl-4-tetrahydrofuryl)methyl]-2-(nitroimino)hexahydropyrimidine] | 100% | 100% | 100% | 100% | 100% | 100% |  |  |  |  |  |  |  |  |  |
| CCC(=O)N1CCCN(CC2CCOC2)C1=N[N+](=O)[O-] (centres unmarked) [Compound No. 13, 1-propionyl-2-(nitroimino)-3-[(tetrahydro-3-furanyl)methyl]hexahydropyrimidine] |  |  | 100% | 100% |  |  |  |  |  |  | 100% | 27% | 100% | 100% | 100% |
| CC(C)C(=O)N1CCCN(CC2CCOC2)C1=N[N+](=O)[O-] (centres unmarked) [Compound No. 9, 1-(isopropylcarbonyl)-2-(nitroimino)-3-[(tetrahydro-3-furanyl)methyl]hexahydropyrimidine] | 86% | 100% | 100% | 100% | 100% | 100% |  |  |  |  |  |  |  |  |  |
